The text below walks through data of US8961759B2, “Device and method for mitochondrial membrane potential assessment” (priority 2011, dated 2015).

Data set [1] has as its system human mitochondria (Heb7A). Nature of the data set: Mitochondrial membrane potential assay with sensor device 1000, substrates and inhibitors added (FIG. 12). In kind it is cell-based. The note with it: isolated Heb7A mitochondria in respiration buffer, about 10 μM TPP+, sequential additions. As for the experimental part:
The voltmeter was linked to the computer via a GPIB interface (National Instrument, GPIB-USB-HS) for data communication. The voltage signal from the voltmeter was acquired using Labview software, so that simultaneous monitoring of the mitochondrial membrane potential could be achieved.
The evaluation of the mitochondrial membrane potential was performed with human mitochondria (Heb7A) in respiration buffer (225 mM mannitol, 75 mM sucrose, 10 mM KCl, 10 mM Tris-HCl, 5 mM KH2PO4, pH 7.2). The measurements were repeated 4 times with freshly prepared mitochondria to confirm the performance and the reproducibility of the sensor. […] 25 ng of isolated mitochondria in 85 μL was used for the test resulting in a final concentration of 0.29 ng/μL.
FIG. 11 illustrates an image of a complete sensor device 1000 showing the reference electrode 1015 and working electrode 1016 with arrows. The sensing chamber was filled with an initial volume of 71 μL respiration buffer. Once the plot baselined to zero, a 100 μM TPP^+Cl^− solution was added to provide a working concentration. The working concentration of TPP^+ was kept at about 10 μM to prevent inhibition of respiration. After stabilization, isolated mitochondria (5 ng μL/1) were added to the sensing chamber 1011.

The conditions of data set [2]: compared with DDA+; cited from earlier work.
The conditions of data set [3]: value given for Equation 3; cited from earlier work.

Consider `C=C(C)[C@H]1Cc2c(ccc3c2O[C@@H]2COc4cc(OC)c(OC)cc4[C@@H]2C3=O)O1` [Rot], for which the “change in the magnitude of ΔΨm after addition” value (shortened to “change in the magnitude of ΔΨm”) in data set [1] is “slow decline in the magnitude of ΔΨm”.

With `c1ccc([P+](c2ccccc2)(c2ccccc2)c2ccccc2)cc1` [TPP^+, tetraphenylphosphonium], the “diffusion coefficient through mitochondrial membranes relative to other cations such as DDA+” value in data set [2] is given as 15 times faster. Further, in data set [3], the “partition coefficient, binding to the external face of the inner membrane (Ko)” value is 14.3 µL/mg.

On to `O=C(O)CC(=O)O` [malonate], for which the “change in the magnitude of ΔΨm” value in data set [1] is on record as “slow decrease in the magnitude of ΔΨm”.

`O=C(O)CCC(=O)O` [succinate]: in data set [1], the “change in the magnitude of ΔΨm” value is recorded as “increase the magnitude of ΔΨm”.
